Laboratory results reported in publication PMC9554980, “Antimalarial potential of compounds isolated from Mammea siamensis T. Anders. flowers: in vitro and molecular docking studies” (BMC Complementary Medicine and Therapies, 2022).
Like-named read-outs stand apart in the source and are kept apart here.

What was measured:
Assay type in all cases: cell-based
[1] = tested on: chloroquine-resistant P. falciparum (K1) strain; test: In vitro antimalarial activity, pLDH assay; conditions: Plasmodium falciparum
Protocol: P. falciparum was cultured according to the method of Trager and Jensen with some modifications. The parasites were cultured in noninfected human red blood cells (2% hematocrit) using RPMI 1640 medium that was supplemented with 0.5% Albumax II, 10 µg/ml hypoxanthine, 2.5 µg/ml gentamicin, 4.8 mg/ml HEPES and buffered with 2 mg/ml sodium bicarbonate as described previously in our previous study. All the chemicals and reagents used for culturing were purchased from Sigma–Aldrich, New Delhi, India and Gibco, Waltham, MA USA. The culture was maintained at 37 °C in a CO2 incubator. The culture medium was changed, and Giemsa-stained slides were prepared daily to monitor parasitemia.
The in vitro antimalarial activity of the isolated compounds was assessed on cultured P. falciparum using the Plasmodium lactate dehydrogenase (pLDH) assay described by Makler with some modifications. Briefly, the compounds were individually dissolved in DMSO to obtain a stock solution of 1 mM, and the solution was then diluted to a final working concentration of 0.78–100 µM. […] Parasitized red blood cells (2% hematocrit, 2% parasitemia) were aliquoted into a 96-well cell culture plate, and then the infected red cells were exposed. The tested compound was added to 96-well plates and incubated at 37 °C for 72 h in a CO2 incubator. At the end of incubation, the plates were subjected to three freeze/thaw cycles (frozen at -20 °C and thawed at 37 °C) for complete hemolysis. The lysed cells were transferred to a new 96-well plate that contained a mixture of 100 µl of Malstat reagent and 20 µl of nitroblue tetrazolium/phenazine ethosulfate solution (Calbiochem®, Sigma–Aldrich, New Delhi, India) and were incubated for 1 h in the dark. The experiments were performed in triplicate. These solutions were used to determine the activity of the lactate dehydrogenase (LDH) enzyme in the cultures. When LDH was present, a purple product was formed, and the optical density was measured using a microplate reader at a wavelength of 650 nm. The concentrations at which 50% inhibition of parasite growth (IC50) was calculated using a nonlinear regression curve contained in GraphPad PRISM version 6 (GraphPad Software, Inc., La Jolla, CA, USA).

[2] = In vitro cytotoxicity, MTT assay, Vero cells; conditions: African green monkey, 5 to 80 µM, read-out: CC50 Vero cell
Protocol: (§1) The toxicity of isolated compounds was assessed by a 3-(4,5-dimethythiazol2-yl)-2,5-diphenyl tetrazolium bromide (MTT) assay according to a previous method. Briefly, Vero cells, a normal mammalian cell line or HepG2 human hepatoma cell line, were seeded into 96-well plates (10^4 cell/ml) and incubated for 24 h at 37 °C with 5% CO2. Cells were then treated with various concentrations of the tested compounds ranging from 5 to 80 µM, and the final concentration of DMSO in the tested dilutions was not higher than 1% for 48 h at 37 °C with 5% CO2. Subsequently, MTT solution was added to each well, and the plate was incubated for 2 h in a CO2 incubator. The medium was then removed, and 100 µl of DMSO was added to each well. The negative control was performed using growth medium alone instead of the tested compounds, while doxorubicin (Sigma–Aldrich, New Delhi, India) was used as the positive toxic control. The assay was performed in triplicates. Finally, the optical density was determined using a microplate reader at a wavelength of 590 nm. The 50% cytotoxic concentration (CC50) was calculated using a nonlinear regression curve contained in GraphPad PRISM version 6 (GraphPad Software, Inc., La Jolla, CA, USA).

[3] = In vitro cytotoxicity, MTT assay, HepG2 cells; conditions: human, 5 to 80 µM
Protocol: as §1

[4] = P. falciparum K1, pLDH assay, 72 h, mean ± S.D. of three determinations, read-out: IC50 K1

| SMILES | IC50 ([1]; P. falciparum K1, pLDH assay, 72 h, positive control, IC50 unit expressed in nM (footnote), read-out: IC50 K1 (positive control)) [nM] | CC50 at 48 h ([2]; Vero cells) [µM] | IC50 [1, 4] [nM] | CC50 at 48 h ([3]; HepG2 cells) [µM] | CC50 at 48 h [2] [µM] | IC50 ([1]; K1, 72 h, read-out: IC50 K1) [nM] | CC50 at 48 h [3] [µM] |
| --- | --- | --- | --- | --- | --- | --- | --- |
| C[C@H]1[C@H](OC(=O)CCC(=O)O)O[C@@H]2O[C@@]3(C)CC[C@H]4[C@H](C)CC[C@@H]1[C@@]24OO3 [Artesunate, reference compound] | 0.53 ± 0.04 |  |  |  |  |  |  |
| C=C(C)[C@@H]1CC[C@]2(C)CC[C@]3(C)[C@H](CC[C@@H]4[C@@]5(C)CC[C@H](O)C(C)(C)[C@@H]5CC[C@]43C)[C@@H]12 [Compound 1, lupeol] |  | > 80 | 18800 ± 3450 | 29.3 ± 1.47 |  |  |  |
| COc1ccc2c(=O)c3cccc(O)c3oc2c1O [Compound 2, 4,5-dihydroxy-3-methoxyxanthone] |  | > 80 | 21000 ± 3560 | > 80 |  |  |  |
| O=c1c2ccccc2oc2c(O)cccc12 [Compound 3, 4-hydroxyxanthone] |  |  |  |  | 48.1 ± 1.68 | 68600 ± 2540 | 46.1 ± 1.66 |
| O=c1c2cc(O)ccc2oc2cccc(O)c12 [Compound 4, 1,7-dihydroxyxanthone] |  | 7.9 ± 0.9 |  | 13.3 ± 1.12 |  | 41700 ± 2230 |  |
| CC(C)CC(=O)c1c2c(c3oc(=O)cc(-c4ccccc4)c3c1O)C=CC(C)(C)O2 [Compound 6, mammea A/AA cyclo D] |  | > 80 | 45600 ± 3120 | > 80 |  |  |  |
| CC(C)CC(=O)c1c2c(c3oc(=O)cc(-c4ccccc4)c3c1O)C[C@H](C(C)(C)O)O2 [Compound 7, mammea A/AA cyclo F] |  | > 80 | 49890 ± 420 | > 80 |  |  |  |
| O=c1c2ccc(O)cc2oc2cccc(O)c12 [Compound 8, 1,6-dihydroxyxanthone] |  |  | 47900 ± 5160 |  | > 80 |  | > 80 |
| COc1cc2c(=O)c3c(O)cccc3oc2c(OC)c1OC [Compound 9, 1-hydroxy-5,6,7-trimethoxyxanthone] |  | > 80 | 9570 ± 1590 | > 80 |  |  |  |
| O=c1c2cccc(O)c2oc2c(O)c(O)ccc12 [Compound 10, 3,4,5-trihydroxyxanthone] |  | > 80 | 15500 ± 2630 | > 80 |  |  |  |
| COc1cccc2oc3c(O)cccc3c(=O)c12 [Compound 11, 5-hydroxy-1-methoxyxanthone] |  | > 80 | 29300 ± 4440 | > 80 |  |  |  |
| O=c1c2ccccc2oc2ccc(O)cc12 [Compound 12, 2-hydroxyxanthone] |  |  |  |  | > 80 | 75000 ± 880 | > 80 |
| COc1ccc2c(=O)c3c(O)cccc3oc2c1O [Compound 13, 1,5-dihydroxy-6-methoxyxanthone] |  | > 80 | 22300 ± 1670 | 30.5 ± 1.49 |  |  |  |
| COc1cccc2c1C(=O)c1c(O)c3c(c(O)c1C2=O)C[C@@](O)(C(=O)CO)C[C@@H]3O[C@H]1C[C@H](N)[C@H](O)[C@H](C)O1 [Doxorubicin, reference compound] |  | 1.46 ± 0.16 |  | 1.11 ± 0.05 |  |  |  |
